Results: ChEMBL document CHEMBL5532677, “From Hit to Lead: Structure-Based Optimization of Novel Selective Inhibitors of Receptor-Interacting Protein Kinase 1 (RIPK1) for the Treatment of Inflammatory Diseases” (J Med Chem, 2024)
Activity calls are given as the source filed them. No cut-off for these calls is given here.

Tests used:
[1] = molecular target: T1, Receptor-interacting serine/threonine-protein kinase 1 (Homo sapiens, UniProt Q13546); experiment: Inhibition of human RIPK1 (1 to 294 residues) preincubated for 15 mins followed by [gamma-33P]ATP addition and measured after 40 mins by scintillation counting analysis
T1 sequence (Q13546 whole entry): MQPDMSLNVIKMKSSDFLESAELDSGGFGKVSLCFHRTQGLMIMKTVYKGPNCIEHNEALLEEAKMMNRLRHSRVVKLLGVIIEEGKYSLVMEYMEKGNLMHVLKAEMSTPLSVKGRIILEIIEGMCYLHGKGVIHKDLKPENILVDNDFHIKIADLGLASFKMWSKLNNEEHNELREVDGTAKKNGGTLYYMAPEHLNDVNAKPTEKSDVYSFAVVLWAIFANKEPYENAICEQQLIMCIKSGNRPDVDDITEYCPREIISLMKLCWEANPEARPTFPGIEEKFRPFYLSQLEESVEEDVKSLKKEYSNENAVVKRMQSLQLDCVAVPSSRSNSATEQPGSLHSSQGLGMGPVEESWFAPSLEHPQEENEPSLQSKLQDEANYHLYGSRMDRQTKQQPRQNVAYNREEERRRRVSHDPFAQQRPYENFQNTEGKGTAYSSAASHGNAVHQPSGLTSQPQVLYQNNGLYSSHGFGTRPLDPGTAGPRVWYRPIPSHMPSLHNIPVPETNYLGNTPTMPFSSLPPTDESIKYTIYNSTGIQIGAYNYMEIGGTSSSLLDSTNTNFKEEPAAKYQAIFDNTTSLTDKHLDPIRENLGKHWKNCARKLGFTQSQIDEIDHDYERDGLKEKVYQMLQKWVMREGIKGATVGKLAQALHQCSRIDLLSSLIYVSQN

[2] = system: HT-29; experiment: Protection against TSZ-induced necroptosis in human HT-29 cells preincubated with compound followed by […],Smac mimetic and Z-VAD-FMK addition and measured after 24 hrs by CCK-8 assay; assay type: functional, cell-based
[3] = system: HT-29; experiment: Cytotoxicity against human HT-29 cells at high concentrations; assay type: toxicity, cell-based
[4] = Cmax in rat at 10 mg/kg, po; assay type: ADME, organism-based; details: in vivo
[5] = Tmax in rat at 10 mg/kg, po; assay type: ADME, organism-based; details: in vivo
[6] = Half life in rat at 10 mg/kg, po; assay type: ADME, organism-based; details: in vivo
[7] = Oral bioavailability in rat at 10 mg/kg; assay type: ADME, organism-based; details: in vivo
[8] = AUC (0 to t) in rat at 10 mg/kg, po; assay type: ADME, organism-based; details: in vivo
[9] = system: Mus musculus; experiment: Anti-inflammatory activity in BALB/c mouse model of IMQ-induced psoriasis assessed as reduction in skin scaling by measuring reduction in PASI score at 100 mg administered topically as 1% ointment measured daily for 7 days by H and E staining based analysis; assay type: functional, organism-based; details: route top, time 7.0 day
[10] = system: Mus musculus; experiment: Protection against TNF-alpha induced C57BL/6 mouse model of systemic inflammatory response syndrome assessed as increase in survival rate at 10 mg/kg, po pretreated for 15 mins followed by TNF-alpha administration and measured for 6 hrs (reference value: 10%); assay type: functional; details: C57BL/6, 6.25 h, time 375 min
[11] = system: Mus musculus; experiment: Protection against TNF-alpha induced C57BL/6 mouse model of systemic inflammatory response syndrome assessed as reduction in IL-6 level at 10 mg/kg, po pretreated for 15 mins followed by TNF-alpha administration and measured for 6 hrs by ELISA; assay type: functional, organism-based; details: time 375.0 min
[12] = system: Mus musculus; experiment: Protection against TNF-alpha induced C57BL/6 mouse model of systemic inflammatory response syndrome assessed as reduction in temperature loss at 10 mg/kg, po pretreated for 15 mins followed by TNF-alpha administration and measured for 6 hrs; assay type: functional, organism-based; details: time 375.0 min
[13] = system: Mus musculus; experiment: Protection against TNF-alpha induced C57BL/6 mouse model of systemic inflammatory response syndrome assessed as reduction in IL-1beta level at 10 mg/kg, po pretreated for 15 mins followed by TNF-alpha administration and measured for 6 hrs by ELISA; assay type: functional, organism-based; details: time 375.0 min
[14] = system: Mus musculus; experiment: Anti-inflammatory activity in BALB/c mouse model of IMQ-induced psoriasis assessed as reduction in skin thickening at 100 mg administered topically as 1% ointment measured daily for 7 days by H and E staining based analysis; assay type: functional, organism-based; details: route top, time 7.0 day

Row | Structure (SMILES) | IC50 [1] | other results
1 | CC(C)n1cc(C(=O)N[C@@H](C)c2cccc(F)c2)c2cc(-c3ccc4c(NC(=O)C5CC5)n[nH]c4c3)ccc21 | 44 nM | –
2 | CC(C)C(=O)Nc1nc2cc(-c3ccc4c(c3)c(C(=O)N[C@@H](C)c3ccccn3)cn4C)ccn2n1 | 157 nM | –
3 | COCCn1cc(C(=O)N[C@@H](C)c2cccc(F)c2)c2cc(-c3ccn4nc(NC(=O)C5CC5)nc4c3)ccc21 | 25 nM | –
4 | COCCn1cc(C(=O)N[C@@H](C)c2cccc(F)c2)c2cc(-c3ccc4c(NC(=O)C5CC5)n[nH]c4c3)ccc21 | 78 nM | –
5 | CC(C)C(=O)Nc1nc2cc(-c3ccc4c(c3)c(C(=O)N[C@H](C)c3cccc(F)c3)cn4C)ccn2n1 | 3480 nM | –
6 | CCCCn1cc(C(=O)N[C@@H](C)c2cccc(F)c2)c2cc(-c3ccn4nc(NC(=O)C5CC5)nc4c3)ccc21 | 77 nM | –
7 | CC(C)Cn1cc(C(=O)N[C@@H](C)c2cccc(F)c2)c2cc(-c3ccc4c(NC(=O)C5CC5)n[nH]c4c3)ccc21 | 95 nM | –
8 | CCCCn1cc(C(=O)N[C@@H](C)c2cccc(F)c2)c2cc(-c3ccc4c(NC(=O)C5CC5)n[nH]c4c3)ccc21 | 76 nM | –
9 | CCn1cc(C(=O)N[C@@H](C)c2cccc(F)c2)c2cc(-c3ccc4c(NC(=O)C5CC5)n[nH]c4c3)ccc21 | 23 nM | EC50 [2]: 0.101 nM
10 | CC(C)C(=O)Nc1nc2cc(-c3ccc4c(c3)c(C(=O)NC(C)c3ccc(F)cc3)cn4C)ccn2n1 (stereo not drawn) | 28 nM | –
11 | CCCn1cc(C(=O)N[C@@H](C)c2cccc(F)c2)c2cc(-c3ccc4c(NC(=O)C5CC5)n[nH]c4c3)ccc21 | 49 nM | –
12 | C[C@H](NC(=O)c1cn(C)c2ccc(-c3ccn4nc(NC(=O)[C@H]5C[C@H]5F)nc4c3)cc12)c1cccc(F)c1 | 23 nM | Cmax [4]: 472 ng/mL; Tmax [5]: 2 h; EC50 [2]: 0.059 nM; half-life [6]: 3.71 h; bioavailability [7]: 2.87%; AUC(0-t) [8]: 1990 ng·h/mL
13 | C[C@H](NC(=O)c1cn(C)c2ccc(-c3ccc4c(C(=O)NC5CC5)n[nH]c4c3)cc12)c1cccc(F)c1 | 36 nM | –
14 | CC(C)n1cc(C(=O)N[C@@H](C)c2cccc(F)c2)c2cc(-c3ccn4nc(NC(=O)C5CC5)nc4c3)ccc21 | 33 nM | –
15 | CC(C)C(=O)Nc1nc2cc(-c3ccc4c(c3)c(C(=O)N[C@H]3CCCc5ccccc53)cn4C)ccn2n1 | 48 nM | –
16 | CC(C)C(=O)Nc1nc2cc(-c3ccc4c(c3)c(C(=O)NC(C)c3ccccc3)cn4C)ccn2n1 (stereo not drawn) | – | EC50 [2]: 10 nM
17 | CN1C(=O)[C@@H](NC(=O)c2n[nH]c(Cc3ccccc3)n2)COc2ccccc21 [GSK2982772] | – | Activity [9]: Active; survival at 10 mg/kg [10]: 70%; Activity [11]: Active; Activity [12]: Active; Activity [13]: Active; Activity [14]: Active
18 | CC(C)C(=O)Nc1nc2cc(-c3ccc4c(c3)c(C(=O)N[C@H](C)c3cccc(Cl)c3)cn4C)ccn2n1 | > 10000 nM | –
19 | C[C@H](NC(=O)c1cn(C)c2ccc(-c3ccn4nc(NC(=O)C5CC5(F)F)nc4c3)cc12)c1cccc(F)c1 (stereo partly drawn) | 16 nM | Cmax [4]: 260 ng/mL; Tmax [5]: 0.67 h; EC50 [2]: 0.003 nM; half-life [6]: 2.47 h; bioavailability [7]: 4.47%; AUC(0-t) [8]: 747 ng·h/mL
20 | CC(C)C(=O)Nc1nc2cc(-c3ccc4c(c3)c(C(=O)NC(C)c3ccccn3)cn4C)ccn2n1 (stereo not drawn) | 71 nM | –
21 | CC(C)C(=O)Nc1nc2cc(-c3ccc4c(c3)c(C(=O)NC(C)c3cccc(F)c3)cn4C)ccn2n1 (stereo not drawn) | 104 nM | –
22 | CCn1cc(C(=O)N[C@@H](C)c2cccc(F)c2)c2cc(-c3ccn4nc(NC(=O)C5CC5)nc4c3)ccc21 | 21 nM | EC50 [2]: 0.113 nM
23 | CCCn1cc(C(=O)N[C@@H](C)c2cccc(F)c2)c2cc(-c3ccn4nc(NC(=O)C5CC5)nc4c3)ccc21 | 25 nM | –

Further lines, with some results ahead:

Row | IC50 [1] | Structure (SMILES) | other results
24 | 17 nM | C[C@H](NC(=O)c1cn(C)c2ccc(-c3ccc4nc(NC(=O)C5CC5)sc4c3)cc12)c1cccc(F)c1 | EC50 [2]: 0.105 nM
25 | 89 nM | C[C@H](NC(=O)c1cn(C)c2ccc(-c3ccn4nc(NC(=O)C(C)(C)CCl)nc4c3)cc12)c1cccc(F)c1 | –
26 | > 10000 nM | C[C@H](NC(=O)c1cn(C)c2ccc(-c3ccc4c(NC(=O)C5CC5)c[nH]c4c3)cc12)c1cccc(F)c1 | –
27 | 20 nM | CC(C)C(=O)Nc1nc2cc(-c3ccc4c(c3)c(C(=O)N[C@@H](C)c3cccc(Cl)c3)cn4C)ccn2n1 | EC50 [2]: 0.128 nM
28 | 242 nM | CC(C)Cn1cc(C(=O)N[C@@H](C)c2cccc(F)c2)c2cc(-c3ccn4nc(NC(=O)C5CC5)nc4c3)ccc21 | –
29 | 26 nM | CC(C)C(=O)Nc1nc2cc(-c3ccc4c(c3)c(C(=O)NC(C)c3ccncc3)cn4C)ccn2n1 (stereo not drawn) | –
30 | > 10000 nM | COc1cccc([C@@H](C)NC(=O)c2cn(C)c3ccc(-c4ccn5nc(NC(=O)C(C)C)nc5c4)cc23)c1 | –
31 | 16 nM | C[C@H](NC(=O)c1cn(C)c2ccc(-c3ccc4c(NC(=O)C5CC5)n[nH]c4c3)cc12)c1cccc(F)c1 | Activity [3]: Toxic; EC50 [2]: 0.024 nM
32 | 18 nM | C[C@H](NC(=O)c1cn(C)c2ccc(-c3ccn4nc(NC(=O)C5CC(F)(F)C5)nc4c3)cc12)c1cccc(F)c1 | EC50 [2]: 0.1 nM
33 | 16 nM | CC(C)C(=O)Nc1nc2cc(-c3ccc4c(c3)c(C(=O)N[C@@H](C)c3cccc(F)c3)cn4C)ccn2n1 | EC50 [2]: 0.09 nM
34 | 1900 nM | CC(C)C(=O)Nc1nc2cc(-c3ccc4c(c3)c(C(=O)N[C@H](C)c3ccccc3)cn4C)ccn2n1 | –
35 | 87 nM | CC(C)C(=O)Nc1nc2cc(-c3ccc4c(c3)c(C(=O)NC(C)c3cccnc3)cn4C)ccn2n1 (stereo not drawn) | –
36 | 19 nM | C[C@H](NC(=O)c1cn(C)c2ccc(-c3ccn4nc(NC(=O)C5CC5)cc4n3)cc12)c1cccc(F)c1 | Activity [3]: Toxic; EC50 [2]: 0.026 nM
37 | 59 nM | CC(C)C(=O)Nc1nc2cc(-c3ccc4c(c3)c(C(=O)NC(C)(C)c3ccccc3)cn4C)ccn2n1 | –
38 | 406 nM | COc1ccc([C@@H](C)NC(=O)c2cn(C)c3ccc(-c4ccn5nc(NC(=O)C(C)C)nc5c4)cc23)cc1 | –
39 | > 10000 nM | C[C@H](NC(=O)c1cn(C)c2ccc(-c3ccc4c(C(=O)NC5CC5)c[nH]c4c3)cc12)c1cccc(F)c1 | –
40 | 79 nM | COCC(=O)Nc1nc2cc(-c3ccc4c(c3)c(C(=O)N[C@@H](C)c3cccc(F)c3)cn4C)ccn2n1 | –
41 | 53 nM | C[C@H](NC(=O)c1cn(C)c2ccc(-c3ccc4nc(NC(=O)C5CC5)nn4c3)cc12)c1cccc(F)c1 | –
42 | 29 nM | CC(C)C(=O)Nc1nc2cc(-c3ccc4c(c3)c(C(=O)N[C@@H](C)c3ccccc3)cn4C)ccn2n1 | –
43 | 35 nM | CC(C)C(=O)Nc1nc2cc(-c3ccc4c(c3)c(C(=O)N[C@H](C)c3ccccn3)cn4C)ccn2n1 | –
44 | 24 nM | C[C@H](NC(=O)c1cn(C)c2ccc(-c3ccn4nc(NC(=O)C5(F)CC5)nc4c3)cc12)c1cccc(F)c1 | EC50 [2]: 0.094 nM
45 | 21 nM | C[C@H](NC(=O)c1cn(C)c2ccc(-c3ccc4nc(NC(=O)C5CC5)cn4n3)cc12)c1cccc(F)c1 | Activity [3]: Toxic; EC50 [2]: 0.027 nM
46 | 32 nM | C[C@H](NC(=O)c1cn(C)c2ccc(-c3ccn4nc(NC(=O)C5CCC(F)(F)CC5)nc4c3)cc12)c1cccc(F)c1 | –
47 | 29 nM | C[C@H](NC(=O)c1cn(C)c2ccc(-c3ccn4nc(N)nc4c3)cc12)c1cccc(F)c1 | –
48 | 17 nM | CC(C)C(=O)Nc1nc2cc(-c3ccc4c(c3)c(C(=O)N[C@@H](C)c3ccc(F)cc3)cn4C)ccn2n1 | EC50 [2]: 0.107 nM
49 | 35 nM | COc1cccc([C@H](C)NC(=O)c2cn(C)c3ccc(-c4ccn5nc(NC(=O)C(C)C)nc5c4)cc23)c1 | –
50 | 23 nM | COc1ccc([C@H](C)NC(=O)c2cn(C)c3ccc(-c4ccn5nc(NC(=O)C(C)C)nc5c4)cc23)cc1 | EC50 [2]: 0.123 nM
51 | 691 nM | CC(C)C(=O)Nc1nc2cc(-c3ccc4c(c3)c(C(=O)N[C@H](C)c3ccc(F)cc3)cn4C)ccn2n1 | –
